Test results published in patent publication US9345694B2, “Compounds for enhancing arginase activity and methods of using same” (Cornell Research Foundation, Inc., priority 2006, dated 2016).

How the values were obtained:
[1] = system: myelin-associated glycoprotein (MAG) inhibition in P7 rat cerebellar neurons; assay: MAG inhibition analysis, neurite outgrowth of P7 rat cerebellar neurons on MAG-overexpressing CHO cells, post-treatment; assay type: cell-based; conditions: 10 nM and 40 nM, 24 h in culture, CHO-MAG vs control CHO cells
Method: Compounds were tested for their ability to overcome myelin-associated glycoprotein (MAG) inhibition in P7 rat cerebellar neurons.
In experiments performed in the Roman Giger laboratory at the University of Rochester School of Medicine and Dentistry, twelve compounds were tested, using the materials and methods described by Venkatesh, et al., J Neurosci.
The twelve compounds were tested in two different dilutions (10 nM and 40 nM final concentration).
MAG-overexpressing CHO cells and control CHO feeder layers were used in the assay. All experiments were done with Percoll purified P7 rat cerebellar neurons. The twelve compounds were tested in a “post-treatment” manner. Post-treatment refers to administering the compounds after the neurons were plated.
After 24 h in culture, cells were fixed and stained with TuJ1 (cells with neurites longer than 1 cell body diameter were quantified). Untreated cells (first column of FIGS. 11 and 12) and DMSO only (second column of FIGS. 11 and 12) were used as a negative controls. RHO-kinase inhibitor Y27632 (15 microM) (third column of FIGS. 11 and 12) was used as a positive control. All experiments have been repeated 3-5 times independently.
In FIGS. 11 and 12, there are two bars for each compound tested.

[2] = system: myelin-associated glycoprotein (MAG) inhibition in p5 rat cerebellar neurons; assay: MAG inhibition analysis, neurite outgrowth of p5 rat cerebellar neurons on MAG-expressing CHO cells, direct addition or priming; assay type: cell-based; conditions: priming overnight at 20 μM, then plated on MAG-expressing CHO cells
Method: Compounds were tested for their ability to overcome myelin-associated glycoprotein (MAG) inhibition in primary rat neurons. […] In a first experiment, the twelve compounds were tested for their ability to overcome inhibition by MAG in culture. The compounds were tested for their ability to inhibit neurite outgrowth of MAG-expressing CHO cells. Cerebellar neurons were cultured on MAG-expressing CHO cells and neurite length is compared to neurons growing on control CHO cells, not expressing MAG. The cells were assessed for their ability to overcome MAG inhibition when added directly to the cultures at a range of concentrations from 2-20 μM. Neurons were plated at a density of about 10,000 neurons per well of an 8-well culture dish containing a monolayer of either MAG-expressing or control CHO cells. The co-cultures were, incubated for 16-18 h and then immunostained for βIII tubulin. Neurite outgrowth was quantified as previously described (Mukhopadhyay et al., 1994). […] At least 400 neurons were measured in each assay and the experiment was carried out at least twice.

Arginase I protein [3] = assay: Western blotting and immunostaining for Arginase I protein in treated neurons; assay type: cell-based, rat; conditions: neurons treated at 20 μM for 18 hours
Method: FIG. 15. Western blot and immunostaining results for arginase I protein. Neurons were treated with, daidzein (20 μM), methoxyvone (5 μM) or lanzoprazole (20 μM) for 18 hours and were then lysed and subjected to gel electrophoresis, followed by western blotting and immunostaining for Arginase I protein. As a positive control, neurons were treated with 1 mM db cAMP.
In a second experiment, the twelve compounds were tested for their ability to upregulate arginase I protein. Neurons were treated with, daidzein (20 μM), methoxyvone (5 μM) or lanzoprazole (20 μM) for 18 hours and were then lysed and subjected to gel electrophoresis, followed by western blotting and immunostaining for Arginase I protein. As a positive control, neurons were treated with 1 mM db cAMP (FIG. 15). Db-cAMP was previously shown to increased Arginase I protein 3-fold as described by Cai, et a., Neuron. 2002 Aug. 15; 35(4):711-9.

Arginase I protein [4] = conditions: Cai et al., cited from earlier work

Structure (SMILES)	effect on releasing MAG inhibition [1]	also measured
CC(=O)Nc1ccc(O)cc1 [Acetaminophen, reference compound]	no effect	
COc1ccc(C[C@H]2NC[C@H](O)[C@H]2OC(C)=O)cc1 [Anisomycin, reference compound]	most promising	
O=C(/C=C/c1ccc(O)c(O)c1)OCCc1ccccc1 [CAPE, Phenethyl caffeate]	no effect	
O=c1c(-c2ccc(O)cc2)coc2cc(O)ccc12 [Daidzein]	no effect	ability to overcome inhibition by MAG (neurite outgrowth) [2]: overcome inhibition by MAG completely; Arginase I protein level (Arginase I protein [3]): up-regulated
CCCC(=O)Nc1ncnc2c1ncn2[C@@H]1O[C@@H]2COP(=O)(O)O[C@H]2[C@H]1OC(=O)CCC [Db-cAMP]		increase of Arginase I protein (Arginase I protein [4]; previously shown, Neuron 2002): 3 fold; Arginase I up-regulation (Arginase I protein [4]; shown previously, 2002): up-regulated
COc1ccc2c(c1)OCc1c-2oc2cc(OC)ccc12 [Dehydrovariabilin]	most promising	
COc1cc(OC)c2c(=O)c(-c3ccc4c(c3)OCO4)coc2c1 [Derrustone]	no effect	
COC(=O)Nc1nc2ccc(Sc3ccccc3)cc2[nH]1 [Fenbendazole, reference compound]	most promising	
Cc1c(OCC(F)(F)F)ccnc1C[S+]([O-])c1nc2ccccc2[nH]1 (stereo not shown) [Lanzoprazole, Lansoprazole, reference compound]		ability to overcome inhibition by MAG (neurite outgrowth) [2]: overcome inhibition by MAG completely; Arginase I protein level (Arginase I protein [3]): up-regulated
Oc1cc(O)cc(/C=C/c2ccccc2)c1 [Pinosylvin]	most promising	
COc1ccc(/C=C/c2cc(O)cc(O)c2)cc1 [Resveratol 4-methyl ether]	no effect	
CC(=O)Oc1cc(OC(C)=O)c2c(c1)O[C@H](c1ccc(OC(C)=O)c(OC(C)=O)c1)[C@H](OC(C)=O)C2 [epicatechin pentaacetate, Epicatechin pentaacetate]	no effect	
